# Measurements published in patent US8143226B2, “Tyrosine kinase receptor antagonists and methods of treatment for breast cancer” (The Regents of the University of California, priority 2005, dated 2012).
# Assays:
# [1] = tested on: MCF-7 cells; test: Proliferation of MCF-7 cells in 10% fetal calf serum (CyQUANT); assay type: cell-based, human; conditions: MCF-7, 10% fetal calf serum
# Protocol: MCF-7 or MCNeuA cells were plated in 96 well plates (5×10^3 cells/well) in DMEM supplemented with 10% FCS. One plate was prepared for each harvest day. […] Microplate cultures were harvested on days 0, 1, 2, and 3 by inverting the microplate onto paper towels with gentle blotting to remove growth medium without disrupting adherent cells. Each plate was kept at −80° C. until the end of the experiment (day 3) when all of the plates were thawed and assayed together. After thawing, 200 μl of CyQUANT GR solution was added to each well and the plates were incubated in the dark for two to five minutes. Fluorescence was measured with a SpectraMax Gemini XS fluorescence microplate reader (Molecular Devices, Sunnyvale, Calif.) with 480-nm excitation and 520-nm emission. Proliferation index was calculated as the percent of nucleotide content versus control cells at day 0.
# [2] = tested on: IGF-1; test: IGF-1 activation in pancreatic cancer cells; assay type: cell-based
# [3] = tested on: pancreatic cancer cells; test: Growth of pancreatic cancer cells in vitro; assay type: cell-based; conditions: FIG. 3
# [4] = tested on: PDGF receptor; conditions: Domin et al. 1994; cited from earlier work
# [5] = tested on: ERK 1 and 2; test: IGF-stimulated ERK phosphorylation in neuroblastoma cells; assay type: cell-based, human; conditions: SH-SY5Y cells, NDGA 1 h, 10 nM IGF-I 15 min
# Protocol: (§1) Detection of phospho-Akt and phospho-Erk. […] Then, some cultures were treated with 10 nM IGF-I for 15 min. Cultures were immediately placed on ice, the medium was removed, and the cells were lysed in modified RIPA buffer (20 mM Tris, 150 mM NaCl, 1 mM EDTA, 1 mM EGTA, 1% Triton X-100, 0.1% sodium dodecyl sulfate, and 1% deoxycholate). Fifty μg of protein from each sample were separated via SDS-PAGE and transfened to nitrocellulose. Phospho- and total-Akt and -Erk were detected by immunoblotting.
# [6] = single injection, mouse, intravenous; cited from earlier work
# [7] = tested on: SH-SY5Y and SHEP cells; test: IGF-I stimulated motility of neuroblastoma cells on gold particle-coated coverslips; assay type: cell-based, human; conditions: 30 μM NDGA, 1 nM IGF-I, 6 h
# Protocol: Measurement of cell motility. Neuroblastoma cells were plated on gold particle-coated coverslips (prepared as described in (30)) in serum-free media at a density of 25,000 cells per coverslip. The cells were incubated for 2 h to allow adhesion to the coverslip. […] 1 nM IGF-I was then added to some wells. Incubation continued for 6 h, followed by fixation with 3.5% glutaraldehyde. Coverslips were mounted on glass slides, then viewed on a Lietz Orthoplan inverted microscope attached to a Sony videoprocessor. Digital images of the tracks etched into the gold by the cells from 3 separately treated coverslips per condition were collected at 200× magnification using Adobe Photoshop software. For each condition, the areas of 120 tracks made by individual cells were measured with NIH Image 1.61 software.
# [8] = tested on: Akt; test: IGF-stimulated Akt phosphorylation in neuroblastoma cells; assay type: cell-based, human; conditions: SH-SY5Y and SHEP cells
# Protocol: as §1
# [9] = tested on: SH-SY5Y cells; test: Propidium iodide flow cytometry of apoptotic (sub-G0) SH-SY5Y cells; assay type: cell-based, human; conditions: SH-SY5Y cells in serum, 30-120 μM, 24 h
# Protocol: Propidium iodide staining of apoptotic cells. SH-SY5Y cells were cultured in DMEM with 10% calf serum. […] The supernatant was collected to save detached cells. Attached cells were removed from the plate via trypsinization, and pelleted by centrifugation in combination with the cells in the supernatant. The cell pellet was fixed by drop-wise addition of cold 70% ethanol while vortexing, gently, and stored at 4° C. The pellet was washed twice and resuspended in PBS and stained with 1 μg/ml propidium iodide. Propidium iodide fluorescence was measured in 30,000 cells per sample using a Becton-Dickinson (Franklin Lakes, N.J.) Facscalibur flow cytometer. The percentage of cells in each stage of the cell cycle, as well as the percentage of cells that were apoptotic (sub-G0) was determined by analyzing the data with ModFit software. The experiment was repeated three times.
# [10] = molecular target: T1, rodent HER2/neu receptor (Rattus norvegicus, UniProt P06494); test: Autophosphorylation of isolated HER2/neu (western blot); assay type: biochemical; conditions: preincubation 20 minutes prior to 10 μM ATP
# T1 construct: made in house; host or cells: MCNeuA mouse mammary carcinoma cells (MMTV/neu transgenic), partially purified by wheat germ agglutinin chromatography
# T1 sequence (P06494 23-1257): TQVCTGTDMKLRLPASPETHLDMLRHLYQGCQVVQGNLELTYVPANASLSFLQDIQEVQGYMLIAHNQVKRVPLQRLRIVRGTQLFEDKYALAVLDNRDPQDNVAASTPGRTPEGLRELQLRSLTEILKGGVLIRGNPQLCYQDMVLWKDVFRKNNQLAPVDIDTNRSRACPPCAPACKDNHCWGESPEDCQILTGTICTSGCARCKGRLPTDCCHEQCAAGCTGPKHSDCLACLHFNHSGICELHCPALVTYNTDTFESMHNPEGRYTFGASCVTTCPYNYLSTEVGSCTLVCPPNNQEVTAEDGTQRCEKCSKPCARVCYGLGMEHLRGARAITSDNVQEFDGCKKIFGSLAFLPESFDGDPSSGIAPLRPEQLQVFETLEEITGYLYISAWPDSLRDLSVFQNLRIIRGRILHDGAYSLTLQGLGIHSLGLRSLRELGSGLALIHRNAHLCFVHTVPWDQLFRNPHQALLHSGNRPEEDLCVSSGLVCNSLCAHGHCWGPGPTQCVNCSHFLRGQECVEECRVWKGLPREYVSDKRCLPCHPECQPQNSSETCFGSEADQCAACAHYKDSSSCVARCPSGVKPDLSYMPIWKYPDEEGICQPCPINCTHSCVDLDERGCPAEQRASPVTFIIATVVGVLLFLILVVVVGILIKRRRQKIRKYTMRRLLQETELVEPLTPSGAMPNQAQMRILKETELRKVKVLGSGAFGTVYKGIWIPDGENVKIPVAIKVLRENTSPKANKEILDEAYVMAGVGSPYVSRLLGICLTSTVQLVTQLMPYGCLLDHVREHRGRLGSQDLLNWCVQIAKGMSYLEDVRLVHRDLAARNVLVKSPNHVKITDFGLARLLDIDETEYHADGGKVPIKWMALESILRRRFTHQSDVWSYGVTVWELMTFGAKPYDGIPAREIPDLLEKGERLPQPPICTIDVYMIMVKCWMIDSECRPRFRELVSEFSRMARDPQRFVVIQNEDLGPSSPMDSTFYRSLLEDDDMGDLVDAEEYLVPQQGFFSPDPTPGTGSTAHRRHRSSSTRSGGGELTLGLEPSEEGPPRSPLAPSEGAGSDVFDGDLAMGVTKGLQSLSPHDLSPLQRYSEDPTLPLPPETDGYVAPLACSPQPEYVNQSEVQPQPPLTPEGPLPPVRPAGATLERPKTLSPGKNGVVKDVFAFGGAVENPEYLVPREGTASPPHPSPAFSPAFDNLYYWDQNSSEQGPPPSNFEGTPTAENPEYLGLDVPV
# Protocol: IGF-1 and HER2/neu receptors were partially purified by WGA chromatography of cells overexpressing the protein of interest. To isolate IGF-1R, CHO cells transfected with and overexpressing the human IGF-1R (CHOIGF-1R) were plated in T-150 flasks and grown in DMEM supplemented with 10% fetal calf serum (FCS) until 80% confluent. Cells were harvested in the basal state and solubilized in 50 mM HEPES, 10% glycerol, 1% Triton X-100, 150 mM NaCl, 5 μM EGTA, 0.24 mg/ml aminoethyl-benzensulfonyl fluoride (AEBSF), 10 μg/ml aprotinin, 25 mM benzamidine, 10 μg soybean trypsin inhibitor, and 5 μg/ml leuptin for one hour at 4° C. Samples were centrifuged for 60 minutes at 100,000 g and solubilized extract collected. Rodent HER2/neu receptors were collected from MCNeuA cells crown under identical conditions and processed similarly. […] WGA fractions containing RTK of interest were determined by SDS page and a western blot that employed antibodies against either the IGF-1R or HER2/neu as appropriate.
# Autophosphorylation of HER2/neu in WGA preparations enriched in this RTK were determined in the absence of ligand. […] Following transfer to nitrocellulose membrane, receptor autophosphorylation was determined by a western blot that employed a phosphospecific antibody against the pNeu (Tyr1248) diluted 1:1000 in Superblock. […] Values were determined by scanning densitometry.
# [11] = molecular target: T2, HER2 (Homo sapiens, UniProt P04626); test: HER2 phosphorylation ELISA in MCF-7/HER2-18 cells; assay type: cell-based; conditions: not stimulated
# T2 construct: MCF-7 cells stably transfected with the full length HER2 cDNA (MCF-7/HER2-18); expressed in transfected cells; host or cells: MCF-7/HER2-18 (from Dr. Christopher Benz)
# T2 sequence (P04626 23-1255): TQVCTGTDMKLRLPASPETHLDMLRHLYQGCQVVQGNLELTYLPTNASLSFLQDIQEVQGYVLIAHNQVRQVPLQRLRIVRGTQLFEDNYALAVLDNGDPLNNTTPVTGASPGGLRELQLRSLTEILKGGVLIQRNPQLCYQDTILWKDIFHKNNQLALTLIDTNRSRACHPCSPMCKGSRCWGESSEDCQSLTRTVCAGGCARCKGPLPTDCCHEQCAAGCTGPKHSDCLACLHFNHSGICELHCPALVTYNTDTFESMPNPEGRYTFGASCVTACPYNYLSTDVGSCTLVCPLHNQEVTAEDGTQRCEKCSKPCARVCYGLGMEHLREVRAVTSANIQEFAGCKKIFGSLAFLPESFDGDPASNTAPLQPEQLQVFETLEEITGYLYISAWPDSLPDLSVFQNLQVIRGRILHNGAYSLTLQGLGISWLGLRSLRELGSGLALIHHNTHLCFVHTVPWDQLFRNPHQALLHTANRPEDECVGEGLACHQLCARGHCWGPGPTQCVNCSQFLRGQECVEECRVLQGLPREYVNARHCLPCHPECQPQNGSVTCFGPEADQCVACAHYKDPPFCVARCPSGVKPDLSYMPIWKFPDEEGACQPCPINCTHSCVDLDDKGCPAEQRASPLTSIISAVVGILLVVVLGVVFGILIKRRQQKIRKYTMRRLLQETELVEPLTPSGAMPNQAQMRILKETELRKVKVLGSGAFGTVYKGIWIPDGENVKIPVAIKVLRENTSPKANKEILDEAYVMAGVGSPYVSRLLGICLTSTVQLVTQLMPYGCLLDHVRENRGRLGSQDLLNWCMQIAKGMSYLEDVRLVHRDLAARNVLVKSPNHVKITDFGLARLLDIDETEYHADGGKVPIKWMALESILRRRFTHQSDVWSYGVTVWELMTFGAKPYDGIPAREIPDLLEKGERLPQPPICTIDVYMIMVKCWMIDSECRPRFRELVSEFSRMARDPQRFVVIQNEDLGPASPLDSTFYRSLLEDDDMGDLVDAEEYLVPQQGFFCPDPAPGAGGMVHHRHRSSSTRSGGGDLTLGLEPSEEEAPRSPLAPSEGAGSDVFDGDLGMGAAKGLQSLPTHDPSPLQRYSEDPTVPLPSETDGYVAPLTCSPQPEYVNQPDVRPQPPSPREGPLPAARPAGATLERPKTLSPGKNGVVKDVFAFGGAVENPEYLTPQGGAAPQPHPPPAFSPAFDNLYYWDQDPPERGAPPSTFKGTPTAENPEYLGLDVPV
# Protocol: RTK inhibitors were dissolved in DMSO and diluted with culture medium before being added to cells for 1.5 hour at 37° C. The final concentration of DMSO during the incubation was 0.3% . For some studies, cells were also stimulated with 3 nM IGF-I for 10 minutes at 37° C. Reactions were terminated by rapidly aspirating medium and washing cells three times with ice cold PBS. Cells were harvested and solubilized in 50 mM HEPES, 150 mM NaCl, 1% Triton X-100, 1 mM PMSF, and 2 mM vanadate for 1 hour at 4° C. Protein concentrations were determined by BCA assay (Pierce, Rockford, Ill.). […] Briefly, 10 μg lysate protein were added to triplicate wells in a 96-well plate coated with monoclonal antibody to the IGF-IR (IR3; 2 μg/ml), and incubated for 18 hours at 4° C. Plates were washed five times and then HRP-conjugated anti-phosphotyrosine antibody (0.3 μg/ml), diluted in Solution B (50 mM HEPES, pH 7.6, 150 mM NaCl, 0.05% Tween-20, 1 mM PMSF, 2 mM vanadate and 1 mg/ml bacitracin), was added for two hours at 22° C. Plates were washed five times prior to color development with TMB substrate, which was terminated with 1.0 M H3PO4. Values for receptor phosphorylation were determined by measuring absorbance at 450 nm.
# HER2 phosphorylation was also determined by ELISA as above, using 2 μg of lysate protein per well and 2 μg/ml Herceptin as the capturing antibody.
compound,measurement,setting,value
"CC(Cc1ccc(O)c(O)c1)C(C)Cc1ccc(O)c(O)c1 (stereo not shown) [NDGA, nordihydroguaiaretic acid]",cell number,"[1]; 60 μM, within 24 hours",dramatically reduced
same,lowest concentration significantly reducing rate of proliferation,[1]; up to 3 days,15 µM
same,IGF-1 activation,[2],inhibiting
same,growth of pancreatic cancer cells in vitro,[3],inhibiting
same,activation of the PDGF receptor,[4],inhibits
same,IGF-stimulated phosphorylation of ERK,[5],dose-dependent inhibitory effect
same,terminal half-life,[6],2.25 h
same,IGF-I induced increase in motility,[7],strongly suppressed
same,IGF-stimulated Akt phosphorylation,[8],dose-dependent inhibition
same,percentage of sub-G0 cells,[9],"dramatic, dose-dependent increase"
same,ATP-induced increase in ligand-independent HER2/neu autophosphorylation,[10],abolished
same,HER2 phosphorylation,[11],strongly inhibited
same,IC50,[11]; read-out: half maximal effect on HER2 phosphorylation,~30 µM
